This assay concerns the target T1, N-terminally GST-tagged DLK (catalytic domain amino acid 1-520) (Homo sapiens, UniProt Q12852).
T1 construct: N-terminally GST-tagged DLK (catalytic domain amino acid 1-520); purchased Carna Bioscience
T1 sequence (Q12852 1-520): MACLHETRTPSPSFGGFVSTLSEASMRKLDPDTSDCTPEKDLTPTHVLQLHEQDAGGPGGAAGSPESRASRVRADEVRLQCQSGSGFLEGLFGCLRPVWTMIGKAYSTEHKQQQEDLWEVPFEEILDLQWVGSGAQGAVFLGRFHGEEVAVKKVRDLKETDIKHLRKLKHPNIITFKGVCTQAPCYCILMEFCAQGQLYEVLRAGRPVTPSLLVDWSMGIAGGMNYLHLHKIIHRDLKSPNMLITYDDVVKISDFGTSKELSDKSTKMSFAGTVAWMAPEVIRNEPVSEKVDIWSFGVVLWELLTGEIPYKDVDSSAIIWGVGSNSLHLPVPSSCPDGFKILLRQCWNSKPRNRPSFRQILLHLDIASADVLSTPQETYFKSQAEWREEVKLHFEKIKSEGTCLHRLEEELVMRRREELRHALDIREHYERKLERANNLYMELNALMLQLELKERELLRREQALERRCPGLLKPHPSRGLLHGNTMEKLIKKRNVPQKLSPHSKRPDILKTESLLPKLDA
Put plainly: DLK TR-FRET inhibition assay. In kind it is biochemical. The settings on record: 5 nM GST-DLK, 40 nM HIS-MKK4 K131M substrate, 30 μM ATP, 60 minutes at ambient temperature. The method in brief:
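Phosphorylated MKK4 was quantified by TR-FRET (Eu-labelled anti-phospho-MKK4, D2 anti-HIS; 3 h, 665 and 615 nm emission) after EDTA quench. Reactions held 5 nM GST-tagged DLK catalytic domain (1-520), 40 nM HIS-MKK4 K131M substrate, 30 μM ATP and compound (3-fold series from 20 uM), 60 min, room temperature, pH 7.5.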
(TR-FRET usually uses a lanthanide donor and a delayed reading to cut background.)
One may read the Ki as the equilibrium dissociation constant of an inhibitor or competing ligand from its target. Higher therefore signals weaker binding. Consider `CC(C)n1nc(-c2cnc(N)c(OC(F)F)c2)cc1[C@H]1[C@@H]2C[C@H](N3CC[C@H](F)C3)C[C@@H]21` [compound 285, 3-(difluoromethoxy)-5-(5-((1R,3r,5S,6S)-3-((S)-3-fluoropyrrolidin-1-yl)bicyclo[3.1.0]hexan-6-yl)-1-isopropyl-1H-pyrazol-3-yl) pyridin-2-amine], for which the Ki worked out at 4.3 nM. For `CC(C)n1nc(-c2cnc(N)c(C(F)(F)F)c2)cc1[C@@H]1[C@H]2CC[C@H](O)[C@H]21` (single isomer, unassigned) [compound 143, 6-(3-(6-amino-5-trifluoromethylpyridin-3-yl)-1-isopropyl-1H-pyrazol-5-yl)bicyclo[3.1.0]hexan-2-ol] the value was 31.9 nM.

As to `CC(C)n1nc(-c2cnc(N)c(OC(F)F)c2)cc1[C@H]1[C@@H]2C[C@H](N3CCC(F)(F)C3)C[C@@H]21` [compound 89, 3-(difluoromethoxy)-5-(5-((1R,3r,5S,6r)-3-(3,3-difluoropyrrolidin-1-yl)bicyclo[3.1.0]hexan-6-yl)-1-isopropyl-1H-pyrazol-3-yl) pyridin-2-amine], affinity was put at a Ki of 6.42 nM.

In turn, `CO[C@@H]1CCN([C@H]2C[C@@H]3[C@H](C2)[C@H]3c2cc(-c3cnc(N)c(OC(F)F)c3)nn2C(C)C)C1` [compound 186, 3-(difluoromethoxy)-5-(1-isopropyl-5-((1R,3r,5S,6R)-3-((R)-3-methoxypyrrolidin-1-yl)bicyclo [3.1.0]hexan-6-yl)-1H-pyrazol-3-yl)pyridin-2-amine] came in with a Ki of 1.6 nM. For `Nc1ncc(-c2cc([C@H]3[C@@H]4C[C@H](N5CCCOCC5)C[C@@H]43)n(CC(F)F)n2)cc1OC(F)(F)F` [compound 256, 5-(5-((1R,3r,5S,6r)-3-(1,4-oxazepan-4-yl)bicyclo[3.1.0]hexan-6-yl)-1-(2,2-difluoroethyl)-1H-pyrazol-3-yl)-3-(trifluoromethoxy) pyridin-2-amine] the value was 1.1 nM; for `CC(C)n1nc(-c2cnc(N)c(C(F)(F)F)c2)cc1[C@H]1[C@@H]2C[C@@H](N3CC(F)C3)C[C@@H]21` [compound 37, 5-(5-((1R,3s,5S,6r)-3-(3-fluoro-azetidin-1-yl)bicyclo[3.1.0]hexan-6-yl)-1-isopropyl-1H-pyrazol-3-yl)-3-(trifluoromethyl)pyridin-2-amine], 2.37 nM; for `CC(C)n1nc(-c2cnc(N)c(OC(F)(F)F)c2)cc1[C@H]1[C@@H]2C[C@@H](N3CC4(CN(C)CCO4)C3)C[C@@H]21` [compound 219, 5-(1-isopropyl-5-((1R,3s,5S,6r)-3-(8-methyl-5-oxa-2,8-diazaspiro [3.5]nonan-2-yl)bicyclo[3.1.0]hexan-6-yl)-1H-pyrazol-3-yl)-3-(trifluoromethoxy)pyridin-2-amine], 2.2 nM. For `CC(C)n1nc(-c2cnc(N)c(OC(F)F)c2)cc1[C@H]1[C@@H]2C[C@H](N3CCN(C)CC3)C[C@@H]21` [compound 198, 3-(difluoromethoxy)-5-(1-isopropyl-5-((1R,3r,5S,6r)-3-(4-methyl-piperazin-1-yl)bicyclo[3.1.0]hexan-6-yl)-1H-pyrazol-3-yl) pyridin-2-amine] the value was 2.1 nM. The result for `CO[C@H]1CCCN([C@@H]2C[C@@H]3[C@H](C2)[C@H]3c2cc(-c3cnc(N)c(C(F)(F)F)c3)nn2C(C)C)C1` [compound 290, 5-(1-isopropyl-5-((1R,3s,5S,6S)-3-((S)-3-methoxypiperidin-1-yl)bicyclo[3.1.0]hexan-6-yl)-1H-pyrazol-3-yl)-3-(trifluoromethyl) pyridin-2-amine] reads 7.7 nM; that for `CC(C)n1nc(-c2cnc(N)c(OC(F)F)c2)cc1[C@H]1[C@@H]2C[C@@H](F)C[C@@H]21` [compound 217, 3-(difluoromethoxy)-5-(5-((1R,3s,5S,6r)-3-fluorobicyclo[3.1.0]hexan-6-yl)-1-isopropyl-1H-pyrazol-3-yl)pyridin-2-amine], 4.2 nM; that for `COCCO[C@H]1C[C@@H]2[C@H](C1)[C@H]2c1cc(-c2cnc(N)c(C(F)(F)F)c2)nn1C(C)C` [compound 272, 5-(1-isopropyl-5-((1R,3r,5S,6r)-3-(2-methoxyethoxy)bicyclo [3.1.0]hexan-6-yl)-1H-pyrazol-3-yl)-3-(trifluoromethyl)pyridin-2-amine], 5.6 nM. Molecule `CC(C)n1nc(-c2cnc(N)c(C(F)(F)F)c2)cc1[C@H]1[C@@H]2C[C@@H](N3C[C@@H]4C[C@H]3CO4)C[C@@H]21` [compound 167, 5-(5-((1R,3s,5S,6S)-3-((1S,4S)-2-oxa-5-azabicyclo[2.2.1]heptan-5-yl)bicyclo[3.1.0]hexan-6-yl)-1-isopropyl-1H-pyrazol-3-yl)-3-(trifluoromethyl)pyridin-2-amine] had a Ki of 1.4 nM. `COC1CN([C@@H]2C[C@@H]3[C@H](C2)[C@H]3c2cc(-c3cnc(N)c(C(F)(F)F)c3)nn2CC(F)F)C1` [compound 149, 5-(1-(2,2-difluoroethyl)-5-((1R,3s,5S,6r)-3-(3-methoxyazetidin-1-yl)bicyclo[3.1.0]hexan-6-yl)-1H-pyrazol-3-yl)-3-(trifluoromethyl) pyridin-2-amine] showed a Ki of 4.1 nM.

In turn, `CC(C)n1nc(-c2cnc(N)c(OC(F)(F)F)c2)cc1[C@H]1[C@@H]2C[C@@H](N3CCOC[C@H]3C)C[C@@H]21` [compound 13, 5-(1-isopropyl-5-((1R,3s,5S,6R)-3-((R)-3-mcthylmorpholino)bicyclo[3.1.0]hexan-6-yl)-1H-pyrazol-3-yl)-3-(trifluoromethoxy) pyridin-2-amine] showed a Ki of 1.89 nM. For `CO[C@H]1CCN([C@@H]2C[C@@H]3[C@H](C2)[C@H]3c2cc(-c3cnc(N)c(C(F)(F)F)c3)nn2C(C)C)C1` [compound 90, (1-isopropyl-5-((1R,3s,5S,6S)-3-((S)-3-methoxypyrrolidin-1-yl)bicyclo[3.1.0]hexan-6-yl)-1H-pyrazol-3-yl)-3-(trifluoromethyl) pyridin-2-amine] the value was 5.95 nM. The result for “3-(difluoromethoxy)-5-(5- ((1R,3r,5S,6r)-3-(3-fluoroazetidin-1- yl)bicyclo[3.1.0]hexan-6-yl)-1- isopropyl-1H-pyrazol-3-yl) pyridin-2-amine [compound 60]” reads 2.26 nM; that for `CC(C)n1nc(-c2cnc(N)c(C(F)(F)F)c2)cc1[C@H]1[C@@H]2C[C@@H](NCC(F)F)C[C@@H]21` [compound 254, 5-(5-((1R,3s,5S,6r)-3-((2,2-difluoroethyl)amino)bicyclo[3.1.0]hexan-6-yl)-1-isopropyl-1H-pyrazol-3-yl)-3-(trifluoromethyl) pyridin-2-amine], 2.4 nM; that for `Nc1ncc(-c2cc([C@H]3[C@@H]4C[C@@H](N5CCOCC5)C[C@@H]43)n(CC3CC3)n2)cc1C(F)(F)F` [compound 280, 5-(1-(cyclopropylmethyl)-5-((1R,3s,5S,6r)-3-morpholinobicyclo [3.1.0]hexan-6-yl)-1H-pyrazol-3-yl)-3-(trifluoromethyl)pyridin-2-amine], 1.1 nM. In turn, `CC(C)n1nc(-c2cnc(N)c(C(F)(F)F)c2)cc1[C@H]1[C@@H]2C[C@H](N3CC4(COC4)C3)C[C@@H]21` [compound 65, 5-(5-((1R,3r,5S,6r)-3-(2-oxa-6-azaspiro[3.3]heptan-6-yl)bicyclo [3.1.0]hexan-6-yl)-1-isopropyl-1H-pyrazol-3-yl)-3-(trifluoro-methyl)pyridin-2-amine] had a Ki of 1.13 nM. `CO[C@@H]1C[C@@H]2[C@H](C1)[C@H]2c1cc(-c2cnc(N)c(OC(F)F)c2)nn1C(C)C` [compound 195, 3-(difluoromethoxy)-5-(1-isopropyl-5-((1R,3s,5S,6r)-3-methoxy-bicyclo[3.1.0]hexan-6-yl)-1H-pyrazol-3-yl)pyridin-2-amine] yielded a Ki of 6.4 nM. For `CO[C@@H]1CCN([C@@H]2C[C@@H]3[C@H](C2)[C@H]3c2cc(-c3cnc(N)c(C(F)(F)F)c3)nn2C(C)C)C1` [compound 192, 5-(1-isopropyl-5-((1R,3s,5S,6R)-3-((R)-3-methoxypyrrolidin-1-yl)bicyclo[3.1.0]hexan-6-yl)-1H-pyrazol-3-yl)-3-(trifluoromethyl) pyridin-2-amine] the value was 2.6 nM; for `CC(C)n1nc(-c2cnc(N)c(C(F)(F)F)c2)cc1[C@H]1[C@@H]2C[C@@]3(CCN3C3COC3)C[C@@H]21` [compound 151, 5-(1-isopropyl-5-((1′R,2r,5′S,6′r)-1-(oxetan-3-yl)spiro[azetidine-2,3′-bicyclo[3.1.0]hexan]-6′-yl)-1H-pyrazol-3-yl)-3-(trifluoromethyl) pyridin-2-amine], 9 nM; for `CC(C)n1nc(-c2cnc(N)c(OC(F)F)c2)cc1[C@H]1[C@@H]2C[C@@H](N3CCOCC(F)(F)C3)C[C@@H]21` [compound 183, 5-(5-((1R,3s,5S,6r)-3-(6,6-difluoro-1,4-oxazepan-4-yl)bicyclo [3.1.0]hexan-6-yl)-1-isopropyl-1H-pyrazol-3-yl)-3-(difluoro-methoxy)pyridin-2-amine], 4.5 nM.

The values above are taken from patent US9365583B2, “Substituted pyrazoles and uses thereof” (Genentech, Inc., priority 2013, dated 2016).
